Reference: patent publication US7605272B2, “IGF-1R inhibitor” (Kyowa Hakko Kirin Co., Ltd., priority 2005, dated 2009)

Columns and labels:
IGF-1R = molecular target: T1, IGF-1R (Homo sapiens, UniProt P08069); test: IGF-1R inhibitory activity (kinase reaction, time-resolved fluoroimmunoassay); format: biochemical; details: IGF-1R active recombinant enzyme, test compound 10 μmol/L
T1 construct: purchased Upstate Co. 14-465
Procedure, shortened: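 Compounds were tested at a single 10 μmol/L concentration. Each was incubated with recombinant IGF-1R (200 μg/L), 10 mmol/L ATP, MgCl2/MnCl2 and Na3VO4 (pH 7.5) on immobilized poly(Glu-Tyr) peptide for 30 min at 24° C. Eu-anti-phosphotyrosine time-resolved fluorescence (340/615 nm) gave relative activity against no-compound and no-enzyme wells, reported as % inhibition.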

KMS-11 = test: Cytostatic activity on human multiple myeloma cell line KMS-11 (WST-1); format: cell-based; details: KMS-11 cells, test compound 1 μmol/L, WST-1; for inhibition at 1 µM: Homo sapiens, KMS-11, 72 h, read-out: cytostatic rate (%) KMS-11 (1 μmol/L)
Procedure, shortened: (§1)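 Cells pre-cultured 24 h at 37 °C, 5% CO2, then exposed 72 h to compound at final 1 or 10 μmol/L (0.1% DMSO). WST-1 added for 2 h, absorbance at 450 nm (ref 690 nm). Cytostatic rate = 100 minus relative growth, with DMSO control as 100% and blank as 0%.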

NCI-H929 = test: Cytostatic activity on human multiple myeloma cell line NCI-H929 (WST-1); format: cell-based; details: NCI-H929 cells, test compound 1 μmol/L, WST-1; for inhibition at 1 µM: Homo sapiens, NCI-H929, 72 h, read-out: cytostatic rate (%) H929 (1 μmol/L)
Procedure, shortened: as §1

T1 sequence (P08069 959-1367 limits assumed): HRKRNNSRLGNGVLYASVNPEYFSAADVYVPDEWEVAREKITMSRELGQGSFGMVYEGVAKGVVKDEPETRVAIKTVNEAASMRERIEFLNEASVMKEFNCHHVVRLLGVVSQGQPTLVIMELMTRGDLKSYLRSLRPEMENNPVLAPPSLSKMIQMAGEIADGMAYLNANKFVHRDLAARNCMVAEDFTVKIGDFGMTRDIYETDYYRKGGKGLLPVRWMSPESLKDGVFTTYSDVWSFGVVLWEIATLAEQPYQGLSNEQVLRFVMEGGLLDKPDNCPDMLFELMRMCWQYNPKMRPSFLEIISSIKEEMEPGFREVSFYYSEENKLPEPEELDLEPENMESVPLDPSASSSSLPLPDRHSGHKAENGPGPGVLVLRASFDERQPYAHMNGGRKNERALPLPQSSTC

SMILES | inhibition at 10 µM (IGF-1R) | inhibitory activity (%) at 10 μmol/L (IGF-1R) | inhibition at 1 µM (KMS-11) | inhibition at 1 µM (NCI-H929) | cytostatic rate (%) KMS-11 (1 μmol/L) (KMS-11) | cytostatic rate (%) H929 (1 μmol/L) (NCI-H929)
Cc1ccsc1C(=O)Nc1cc(CN2CCC(CCO)CC2)ccc1/C=C/c1n[nH]c2ccccc12 [Compound 311, (E)-N-{5-[4-(2-hydroxyethyl)piperidin-1-ylmethyl]-2-[2-(1H-indazol-3-yl)vinyl]phenyl}-3-methylthiophene-2-carboxamide] | 104% |  | 111% | 117% |  | 
Nc1cccc2c1C(=O)N(c1cc(C(=O)N3CCC(N4CCOCC4)CC3)ccc1/C=C/c1n[nH]c3ccccc13)C2=O [Compound 317, (E)-4-amino-2-{2-[2-(1H-indazol-3-yl)vinyl]-5-[4-(morpholin-4-yl)piperidin-1-ylcarbonyl]phenyl}isoindole-1,3-dione] | 103% |  | 105% | 114% |  | 
COCCCN1CCN(Cc2ccc(/C=C/c3n[nH]c4ccccc34)c(N3Cc4c(N)cccc4C3=O)c2)CC1 [Compound 323, (E)-4-amino-2-{2-[2-(1H-indazol-3-yl)vinyl]-5-[4-(3-methoxypropyl)piperazin-1-ylmethyl]phenyl}-2,3-dihydroisoindol-1-one] |  | 105.8% |  |  | 73.8% | 107.6%
COC1CCN(C(=O)c2ccc(/C=C/c3n[nH]c4ccccc34)c(N3C(=O)c4cccc(N)c4C3=O)c2)CC1 [Compound 325] |  | 100.2% |  |  | 100.1% | 118.4%
Cc1ccsc1C(=O)Nc1cc(CN2CCN(C)C(=O)C2)ccc1/C=C/c1n[nH]c2ccccc12 [Compound 329, (E)-N-{2-[2-(1H-indazol-3-yl)vinyl]-5-(4-methyl-3-oxopiperazine-1-ylmethyl)phenyl}-3-methylthiophene-2-carboxamide] | 105% |  | 116% | 132% |  | 
Cc1ccsc1C(=O)Nc1cc(CN2CC[C@@H](O)C2)ccc1/C=C/c1n[nH]c2ccccc12 [Compound 330, (R)-(E)-N-{5-(3-hydroxypyrrolidin-1-ylmethyl)-2-[2-(1H-indazol-3-yl)vinyl]phenyl}-3-methylthiophene-2-carboxamide] | 102% |  | 112% | 131% |  | 
Cc1ccsc1C(=O)Nc1cc(CN2CCNC[C@H]2C)ccc1/C=C/c1n[nH]c2ccccc12 [Compound 331, (R)-(E)-N-{2-[2-(1H-indazol-3-yl)vinyl]-5-(2-methylpiperazin-1-ylmethyl)phenyl}-3-methylthiophene-2-carboxamide] | 103% |  | 102% | 116% |  | 
COc1c(OCC(=O)N2CCN(C)CC2)ccc(/C=C/c2n[nH]c3ccccc23)c1NC(=O)c1sccc1C [Compound 333, (E)-N-{6-[2-(1H-indazol-3-yl)vinyl]-2-methoxy-3-[2-(4-methylpiperazin-1-yl)-2-oxoethoxy]phenyl}-3-methylthiophene-2-carboxamide] | 109% |  | 119% | 118% |  | 
Cc1ccsc1C(=O)Nc1cc(CN2CCNC[C@@H]2C)ccc1/C=C/c1n[nH]c2ccccc12 [Compound 336, (E)-(S)—N-{2-[2-(1H-indazol-3-yl)vinyl]-5-(2-methylpiperazin-1-ylmethyl)phenyl}-3-methylthiophene-2-carboxamide] | 101% |  | 115% | 131% |  | 
COc1c(OCCN2CCCC2=O)ccc(/C=C/c2n[nH]c3ccccc23)c1NC(=O)c1sccc1C [Compound 337, (E)-N-{6-[2-(1H-indazol-3-yl)vinyl]-2-methoxy-3-[2-(2-oxopyrrolidin-1-yl)ethoxy]phenyl}-3-methylthiophene-2-carboxamide] | 97.4% |  | 121% | 120% |  | 
CCN(CCO)CCCOc1ccc(/C=C/c2n[nH]c3ccccc23)c(NC(=O)c2sccc2C)c1OC [Compound 339, (E)-N-{3-{3-[N-ethyl(2-hydroxyethyl)amino]propoxy}-6-[2-(1H-indazol-3-yl)vinyl]-2-methoxyphenyl}-3-methylthiophene-2-carboxamide] | 104% |  | 118% | 119% |  | 

The next lines start with results.

inhibition at 10 µM (IGF-1R) | inhibitory activity (%) at 10 μmol/L (IGF-1R) | SMILES | inhibition at 1 µM (KMS-11) | inhibition at 1 µM (NCI-H929) | cytostatic rate (%) KMS-11 (1 μmol/L) (KMS-11) | cytostatic rate (%) H929 (1 μmol/L) (NCI-H929)
 | 100.7% | CC(=O)CCN1CCN(Cc2ccc(/C=C/c3n[nH]c4ccccc34)c(NC(=O)c3sccc3C)c2)CC1 [Compound 313, (E)-{2-[2-(1H-indazol-3-yl)vinyl]-5-[4-(3-oxobutyl)piperazin-1-ylmethyl]phenyl}-3-methylthiophene-2-carboxamide] |  |  | 107.9% | 115.2%
106% |  | CN1CCN(C(=O)c2ccc(/C=C/c3n[nH]c4ccccc34)c(N3C(=O)c4cccc(N)c4C3=O)c2)CC1 [Compound 315, (E)-4-amino-2-{2-[2-(1H-indazol-3-yl)vinyl]-5-(4-methylpiperazin-1-ylcarbonyl)phenyl}isoindole-1,3-dione] | 106% | 113% |  | 
 | 100.4% | Cc1ccsc1C(=O)Nc1cc(CN2CCN(CCN3CCOCC3)CC2)ccc1/C=C/c1n[nH]c2ccccc12 [Compound 319] |  |  | 102.6% | 122.4%
 | 102.1% | CON(C)C(=O)c1ccc(/C=C/c2n[nH]c3ccccc23)c(NC(=O)c2sccc2C)c1 [Compound 320, (E)-{2-[2-(1H-indazol-3-yl)vinyl]-5-(N-methoxy N-methylcarbamoyl)phenyl}-3-methyl-2-carboxamide] |  |  | 112.1% | 122.8%
101% |  | COCCCN1CCN(Cc2ccc(/C=C/c3n[nH]c4ccccc34)c(N3Cc4c(N)cccc4C3=O)c2)CC1 [Compound 321, (E)-4-amino-2-{5-[4-(3-methoxypropyl)piperazin-1-ylmethyl]-2-[2-(1H-indazol-3-yl)vinyl]phenyl}-2,3-dihydroisoindole-1-one] |  | 122% | 102.3% | 
99.1% |  | Cc1ccsc1C(=O)Nc1cc(CN2CCC(CCC(C)(C)O)CC2)ccc1/C=C/c1n[nH]c2ccccc12 [Compound 322, (E)-N-{5-[4-(3-hydroxy-3-methylbutyl)piperidin-1-ylmethyl]-2-[2-(1H-indazol-3-yl)vinyl]phenyl}-3-methylthiophene-2-carboxamide] | 106% | 122% |  | 
103% |  | CN(C)C(=O)c1ccc(/C=C/c2n[nH]c3ccccc23)c(N2C(=O)c3cccc(N)c3C2=O)c1 [Compound 326, (E)-3-(4-amino-1,3-dioxo-1,3-dihydroisoindol-2-yl)-4-[2-(1H-indazol-3-yl)vinyl]-N,N-dimethylbenzamide] | 102% | 118% |  | 
101% |  | Cc1ccsc1C(=O)Nc1cc(C(=O)N(C)CCO)ccc1/C=C/c1n[nH]c2ccccc12 [Compound 327, (E)-N-{5-[N-(2-hydroxyethyl)-N-methylcarbamoyl]-2-[2-(1H-indazol-3-yl)vinyl]phenyl}-3-methylthiophene-2-carboxamide] | 98% | 116% |  | 
97.9% |  | Cc1ccsc1C(=O)Nc1cc(C(=O)N(C)C2CCN(C)CC2)ccc1/C=C/c1n[nH]c2ccccc12 [Compound 328, (E)-N-{2-[2-(1H-indazol-3-yl)vinyl]-5-[N-methyl-N-(1-methylpiperidin-4-yl)carbamoyl]phenyl}-3-methylthiophene-2-carboxamide] | 105% | 116% |  | 
 | 102.6% | Cn1cccc1C(=O)Nc1cc(CN2CCNCC2)ccc1/C=C/c1n[nH]c2ccccc12 [Compound 332] |  |  | 89.9% | 113.9%
102% |  | COc1c(OCCN2C(=O)CNC2=O)ccc(/C=C/c2n[nH]c3ccccc23)c1NC(=O)c1sccc1C [Compound 334, (E)-N-{6-[2-(1H-indazol-3-yl)vinyl]-2-methoxy-3-[2-(2,5-dioxoimidazolidin-1-yl)ethoxy]phenyl}-3-methylthiophene-2-carboxamide] | 97.5% | 111% |  | 
102% |  | COc1c(OCC(=O)N2CCOCC2)ccc(/C=C/c2n[nH]c3ccccc23)c1NC(=O)c1sccc1C [Compound 335, (E)-N-{6-[2-(1H-indazol-3-yl)vinyl]-2-methoxy-3-(2-morpholin-4-yl-2-oxoethoxy)phenyl}-3-methylthiophene-2-carboxamide] | 110% | 117% |  | 
99% |  | CCCS(=O)(=O)NCCOc1ccc(/C=C/c2n[nH]c3ccccc23)c(NC(=O)c2sccc2C)c1OC [Compound 338, (E)-N-{6-[2-(1H-indazol-3-yl)vinyl]-2-methoxy-3-[2-(propylsulfonylamino)ethoxy]phenyl}-3-methylthiophene-2-carboxamide] | 122% | 120% |  | 
